Data from patent US7968139B2, “Packaged beverages” (Kao Corporation, priority 2000, dated 2011).

Legend:
[1] = tested on: PPAR-dependent gene transcription in small intestine epithelial cell line IEC-6; assay: Test on PPAR-dependent gene transcription activation (PPAR-Luc reporter), IEC-6; format: cell-based; details: IEC-6, test concentration 10 μM, 24 hours
Experimental: (§1) The small intestine epithelial cell line IEC-6 and human hepatic cell line HepG2 were inoculated on a 12 well plate and cultured in DMEM (5% FCS) for 24 hours. A DNA chain containing PPAR responsive element (underlined portion) ([…]), a SV40 promoter gene, a PPAR reporter plasmid (PPAR-Luc) containing firefly luciferase gene, and a control plasmid having thymidine kinase promoter gene linked on the upstream of renilla luciferase gene were introduced simultaneously by using a transfection reagent (“Superfect transfection reagent”, product of Promega Corporation) each in an amount of 0.5 μg/well. The culture broth was then replaced with a DMEM (—FCS) medium containing a test substance, followed by incubation for further 24 hours. After washing with PBS, the cells were lysed using dual luciferase assay system (product of Promega Corporation). To the resulting lysate, a substrate solution containing luciferin was added and firefly and renilla luciferase activities were measured by a luminometer. In this test system, a PPAR-dependent gene transcriptional activator was searched for by measuring the transcriptional activity (luciferase activity of PPAR-dependent gene. It is to be noted that the PPAR-dependent gene transcriptional activity (luciferase activity) was defined as described below. PPAR-dependent gene transcriptional activity (luciferase activity)=(firefly luciferase activity by PPAR-Luc)/(renilla luciferase activity by TK-Luc)
(§2) In Table 8, PPAR-dependent gene transcription activating capacity of each test substance in IEC-6 and HepG2 cell lines is shown. In this table, PPAR-dependent transcriptional activity by the control is set at 100 and activity relative to it is indicated. As a positive control, fenofibrate was employed.

[2] = tested on: PPAR-dependent gene transcription in human hepatic cell line HepG2; assay: Test on PPAR-dependent gene transcription activation (PPAR-Luc reporter), HepG2; format: cell-based; details: HepG2, test concentration 10 μM, 24 hours
Experimental: as §1, §2

Question: For Catechin, which “PPAR-dependent transcriptional activity (luciferase activity) relative to control set at 100” value [1] is on record?
Answer: 152

Question: And the “PPAR-dependent transcriptional activity (luciferase activity) relative to control set at 100” value [2]?
Answer: 149

Question: What does the source list for `O=C(O[C@@H]1Cc2c(O)cc(O)cc2O[C@@H]1c1ccc(O)c(O)c1)c1cc(O)c(O)c(O)c1` [Epicatechin gallate]?
Answer: PPAR-dependent transcriptional activity (luciferase activity) relative to control set at 100 [1]: 178; PPAR-dependent transcriptional activity (luciferase activity) relative to control set at 100 [2]: 166

Question: Which results are given for `O=C(O[C@@H]1Cc2c(O)cc(O)cc2O[C@@H]1c1cc(O)c(O)c(O)c1)c1cc(O)c(O)c(O)c1` [Epigallocatechin gallate]?
Answer: PPAR-dependent transcriptional activity (luciferase activity) relative to control set at 100 [1]: 184; PPAR-dependent transcriptional activity (luciferase activity) relative to control set at 100 [2]: 172

Question: For `Oc1cc(O)c2c(c1)O[C@H](c1ccc(O)c(O)c1)[C@H](O)C2` [Epicatechin], which “PPAR-dependent transcriptional activity (luciferase activity) relative to control set at 100” value [1] is on record?
Answer: 158

Question: And the “PPAR-dependent transcriptional activity (luciferase activity) relative to control set at 100” value [2]?
Answer: 150
